Assay results as given in paper PMC11547813, “The Antifungal Effects of Berberine and Its Proposed Mechanism of Action Through CYP51 Inhibition, as Predicted by Molecular Docking and Binding Analysis” (Molecules, 2024).

Biological target: T1, CYP51Ca (recombinant protein CYP51 of C. albicans) (Candida albicans, UniProt P10613)
T1 construct: gene ERG11; commercial recombinant protein from Sangon Biotech (Shanghai)
Assay: biolayer interferometry (BLI), protein immobilised on APS sensor
Type: binding
Excerpt: biolayer interferometry (BLI), protein immobilised on APS sensor on CYP51Ca (recombinant protein CYP51 of C. albicans) | berberine binds to CYP51Ca in a dose-dependent manner, with a dissociation constant (KD)

T1 sequence (P10613 whole entry): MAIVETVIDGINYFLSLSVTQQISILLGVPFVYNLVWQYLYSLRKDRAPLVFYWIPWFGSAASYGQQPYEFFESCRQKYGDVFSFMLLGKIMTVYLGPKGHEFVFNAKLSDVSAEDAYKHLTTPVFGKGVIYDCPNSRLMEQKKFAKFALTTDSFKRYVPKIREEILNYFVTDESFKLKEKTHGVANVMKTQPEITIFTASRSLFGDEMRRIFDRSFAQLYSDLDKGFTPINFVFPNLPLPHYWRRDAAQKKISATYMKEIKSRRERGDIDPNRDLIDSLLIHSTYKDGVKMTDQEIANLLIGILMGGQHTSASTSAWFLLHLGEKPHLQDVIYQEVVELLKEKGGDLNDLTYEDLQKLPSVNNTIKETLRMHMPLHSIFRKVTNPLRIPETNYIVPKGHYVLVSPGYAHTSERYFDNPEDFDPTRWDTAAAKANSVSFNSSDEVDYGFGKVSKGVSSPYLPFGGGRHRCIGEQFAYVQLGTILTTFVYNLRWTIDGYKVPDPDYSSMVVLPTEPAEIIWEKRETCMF

COc1ccc2cc3[n+](cc2c1OC)CCc1cc2c(cc1-3)OCO2 [berberine]
Kd: < 1 pM
